Measurements taken from article PMC3805590, “Isozyme-Specific Ligands for O-acetylserine sulfhydrylase, a Novel Antibiotic Target” (PLoS ONE, 2013).
Several values for one entry are separate records, joined by “and”; a condition that tells them apart may be missing. Equal entries are not always repeated.

Legend:
OASS-A = molecular target: T1, OASS-A (Salmonella typhimurium, UniProt P0A1E3); assay: Ligand binding affinity to OASS-A by PLP fluorescence titration; conditions: for Kd: PLP fluorescence at 500 nm, excitation 412 nm, 100 mM Hepes pH 7.0, 20 °C
T1 construct: OASS-A and OASS-B were expressed and purified as previously described; made in house
Procedure: (§1) OASS-A and OASS-B were expressed and purified as previously described. The binding affinity of selected ligands to OASS-A and OASS-B was determined by monitoring the increase in fluorescence emission of the bound PLP at 500 nm following excitation at 412 nm, [55]. Emission spectra were collected at increasing ligand concentrations in the presence of 0.05–1 µM OASS, 100 mM Hepes buffer, pH 7.0 at 20°C. DMSO and/or potassium hydroxide were added when needed to solubilize the compounds and pH was checked to be between 7 and 8.5. Spectra were corrected for the buffer contribution. Fluorescence measurements were carried out using a FluoroMax-3 fluorometer (HORIBA-Jobin Yvon), equipped with a thermostated cell-holder.
(§2) The dependence of fluorescence intensity at 500 nm on ligand concentration was fitted to a binding isotherm: [drawing 1] (1) where I is the fluorescence intensity at 500 nm in the presence of the ligand, I0 is the fluorescence intensity in the absence of ligand, Imax is the maximum fluorescence change at saturating ligand concentrations, [L] is the ligand concentration, and Kd is the dissociation constant of the OASS-ligand complex. This measurement is a direct determination of ligand dissociation constant in the absence of substrate, thus it coincides with Ki, independently from the inhibition mechanism.
(§3) A total of 12 compounds for OASS-A (Table 1) and 11 compounds for OASS-B (Table 2) predicted to be potential ligands were experimentally tested by determining their dissociation constants exploiting PLP fluorescence changes as a function of ligand concentration. The observed increases in coenzyme fluorescence and the concomitant blue shifts of the peaks upon ligand binding result from the closure of the active site – thus altering the coenzyme microenvironment, [55]. It is important to point out that the evaluated dissociation constants for these compounds correspond to their inhibition constants, Ki, because they occupy the enzyme active site, [19], and, therefore, are purely competitive inhibitors.

OASS-B = molecular target: T2, OASS-B (Salmonella typhimurium, UniProt P29848); assay: Ligand binding affinity to OASS-B by PLP fluorescence titration; conditions: PLP fluorescence at 500 nm, excitation 412 nm, 100 mM Hepes pH 7.0, 20 °C
T2 construct: OASS-A and OASS-B were expressed and purified as previously described; made in house
Procedure: as §1, §2, §3

OASS = assay: Reaction or time-dependent inactivation of OASS by ligand; assay type: biochemical, Salmonella typhimurium; conditions: under the paper's experimental conditions
[1] = system: S. typhimurium knock-out for cysteine synthase; set-up: method as in PMID 18957594; conditions: cysteine synthase knock-out vs wild type; cited from earlier work

T1 sequence (P0A1E3 whole entry): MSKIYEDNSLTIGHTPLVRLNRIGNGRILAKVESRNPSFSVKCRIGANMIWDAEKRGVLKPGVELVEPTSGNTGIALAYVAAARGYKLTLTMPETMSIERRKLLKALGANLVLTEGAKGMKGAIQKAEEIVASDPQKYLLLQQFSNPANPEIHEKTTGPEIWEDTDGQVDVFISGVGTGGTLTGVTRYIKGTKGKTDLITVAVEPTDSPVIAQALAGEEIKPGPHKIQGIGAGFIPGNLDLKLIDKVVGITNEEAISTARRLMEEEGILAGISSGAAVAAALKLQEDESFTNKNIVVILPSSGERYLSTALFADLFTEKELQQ
T2 sequence (P29848 whole entry): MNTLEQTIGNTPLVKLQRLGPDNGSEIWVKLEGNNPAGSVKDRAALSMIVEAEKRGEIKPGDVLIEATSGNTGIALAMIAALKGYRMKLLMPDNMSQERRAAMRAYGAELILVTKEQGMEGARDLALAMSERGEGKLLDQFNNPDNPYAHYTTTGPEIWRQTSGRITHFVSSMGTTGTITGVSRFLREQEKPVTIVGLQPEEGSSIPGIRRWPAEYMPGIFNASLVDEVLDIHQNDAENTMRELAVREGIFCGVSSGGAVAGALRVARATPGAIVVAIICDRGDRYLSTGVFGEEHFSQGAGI

Row | Structure (SMILES) | Kd (OASS-A) | Kd (OASS-B) [µM] | also measured
1 | O=C(O)C1CCCCN1S(=O)(=O)c1cccc([N+](=O)[O-])c1 (centres unmarked) [Compound 5] | 218 ± 61 µM |  | 
2 | O=C(O)C1CC=CCC1C(=O)Nc1nncs1 (centres unmarked) [Compound 2] | 82 ± 18 µM | > 1500 | 
3 | O=C(O)/C=C(/Cl)CC(=O)O [Compound 13] | 29 ± 3 µM | 33 ± 2 | reaction or time-dependent inactivation of OASS (OASS): no reaction or time-dependent inactivation of OASS was observed
4 | O=C(O)CSc1nsc(SCC(=O)O)n1 [Compound 16] |  | > 1500 | 
5 | O=C(O)C1CC=CCC1C(=O)NCc1ccncc1 (centres unmarked) [Compound 6] | 283 ± 19 µM |  | 
6 | O=C(O)c1cn(C2CC2)c2cc(N3CCNCC3)c(F)cc2c1=O [ciprofloxacin] |  |  | MIC lower than wild type bacterium [1]: 500 fold
7 | CC(C)CC(NC=C1C(=O)OC(C)(C)OC1=O)C(=O)O (centres unmarked) [Compound 12] | > 1500 µM |  | binding to OASS-A (in words) (OASS-A; fluorimetric titration): no binding was observed
8 | CC1(C)OC(=O)C(=CNC(CCC(=O)O)C(=O)O)C(=O)O1 (centres unmarked) [Compound 17] |  | > 1500 | 
9 | O=C(O)c1ccoc1CN1CCOCC1 [Compound 11] | > 1500 µM |  | 
10 | O=C(O)CC(C(=O)O)c1ccccc1 (centres unmarked) [Compound 4] | 103 ± 9 µM |  | 
11 | CC(C)C(NS(=O)(=O)c1cccs1)C(=O)O (centres unmarked) [Compound 3] | 95 ± 10 µM | > 1500 | 
12 | Cc1nnc(NC(=O)c2c(C(=O)O)cccc2[N+](=O)[O-])s1 [Compound 10] | > 1500 µM |  | 
13 | CC1(C(=O)O)Cc2oncc2CC1C(=O)O (centres unmarked) [Compound 18] |  | > 1500 | 
14 | O=C(NC(Cc1ccccc1)C(=O)O)c1ccco1 (centres unmarked) [Compound 9] | 1300 ± 400 µM |  | 
15 | CCn1ncc([N+](=O)[O-])c1C(=O)O [Compound 23] |  | > 1500 | 
16 | CC1=C(C(=O)O)N2C(=O)C(NC(=O)c3nn(C)cc3[N+](=O)[O-])C2SC1 (centres unmarked) [Compound 8] | 732 ± 72 µM |  | 
17 | O=C(O)CCN(CCC(=O)O)S(=O)(=O)c1ccccc1 [Compound 19] |  | > 1500 | 
18 | CCC1([N+](=O)[O-])CN(CC(=O)O)CN(CC(=O)O)C1 [Compound 21] |  | > 1500 | 
19 | Cn1nnnc1Sc1ncccc1C(=O)O [Compound 14] | > 1500 µM | 810 ± 110 | 
20 | CC(C)CC(NC(=O)c1ccco1)C(=O)O (centres unmarked) [Compound 7] | 558 ± 131 µM |  | 
21 | C[S+]([O-])CCC(NS(=O)(=O)c1ccccc1)C(=O)O (centres unmarked) [Compound 22] |  | > 1500 | 
22 | O=C(O)CNC(=O)CNC(=O)C1C2C=CC(C2)C1C(=O)O (centres unmarked) [Compound 1] | 3.8 µM and < 100 µM and 3.7 µM | 50 ± 5 | 
